For one assay, the system named is A375 human skin melanoma. Put plainly: MTT cell viability assay, A375. The class given is cell-based. The following applies: 72 h. From the text:
(§1) Thus, care must be taken when comparing their biological activities with those of our previous studies, even with the same cell line, because the covalent vs. non‐covalent combination of drugs might imply different mechanisms of action in the cell.44 Here, we studied the in vitro activity of ruthenacarborane 3, i. e. free acid, and its 8‐hydroxyquinolyl (4) and 4‐{(7‐chloroquinolin‐4‐yl)oxy}butanol‐1‐yl (5) esters, against a panel of cancer cell lines (B16 mouse melanoma, A375 human skin melanoma, MCF‐7 human breast adenocarcinoma, LN229 human glioblastoma, U251 human glioma). Human fibroblast cell line MRC‐5, murine microglial cell line BV‐2 as well as peritoneal exudate cells (Mph), were chosen as models for non‐malignant cells. […] On the other side, we wanted to assess the reproducibility of the viability data, under either controlled (with BSA) or uncontrolled (without BSA) conditions, in two sets of independent assays. […] Cells were exposed to 3–5 for 72 h, after which cell viability was determined via 3‐(4,5‐dimethylthiazol‐2‐yl)‐2,5‐diphenyltetrazolium bromide (MTT) and crystal violet (CV) assays, in parallel (Table 2). Cisplatin was also tested as reference.
(§2) Preparation of drug solutions. […] Stock solution of cisplatin was prepared in DMF (10 mM) immediately before use. A stock solution of BSA in PBS was prepared at 1.28 mM concentration, and stored at 4 °C in the dark. […] Alternatively, 3 or 4 (DMSO stock solution) were added to the BSA solution in PBS, always with a 10 : 1 molar ratio of BSA to ruthenacarborane. The BSA−ruthenacarborane solutions were incubated 0.5–1 h at room temperature, then diluted with cell culture medium to the desired final concentrations. Final concentrations of 3 and 4 were the same as for the BSA‐free formulation. Final DMSO was 0.02–0.5 vol %.
(§3) Colorimetric assays for cellular viability. […] For counting the number of attached (viable) cells, cells were fixed with 4 % (w/v) paraformaldehyde for 10 min at room temperature, and subsequently stained for 15 min with […] crystal violet (CV) solution. Cells were then washed with tap water, dried in air, and the CV dye was dissolved in 33 % (w/v) acetic acid solution. For the detection of mitochondrial respiration, cells were cultivated in MTT staining solution (0.5 mg mL^−1) for approximately 1 h. The dye was then discarded, and the formed formazan (purple) was dissolved in DMSO. The absorbance was measured with an automated microplate reader at λmax 540 nm, with the reference λmax 670 nm. Untreated cells or cells treated only with BSA (control) were also measured, as reference for BSA‐free and BSA‐containing drug formulations, respectively. […] Cell viability is expressed as percentage (%) relative to control (untreated cultures).58 Experiments were run in three independent replicates. […]
On the technique in general: Tetrazolium assays rely on reduction of a dye to a coloured formazan, in cell work by metabolically active cells.

Assay [1] has as its system MCF‐7 human breast adenocarcinoma. Nature of the assay: Crystal violet (CV) cell viability assay, MCF‐7. Particulars: 72 h. The class given is cell-based.
Text: as §1, §2, §3

Another assay concerns B16 mouse melanoma. Nature of the assay: Crystal violet (CV) cell viability assay, B16. The class given is cell-based. The following applies: 72 h.
Text: as §1, §2, §3

For a further assay, the system named is LN229 cells. Put plainly: Wound healing assay, LN229. The class given is cell-based, human. The following applies: LN229, IC50 dose, 72 h.
In the next assay the test system is MCF‐7 cells. Put plainly: Wound healing assay, MCF‐7. Particulars: MCF‐7, 20 μM, 72 h. The class given is cell-based, human.
The next assay relates to U251 human glioma. Put plainly: Crystal violet (CV) cell viability assay, U251. The following applies: CV assay, 72 h; read-out: IC50 U251. The class given is cell-based.
Text: as §1, §2
Colorimetric assays for cellular viability. […] For counting the number of attached (viable) cells, cells were fixed with 4 % (w/v) paraformaldehyde for 10 min at room temperature, and subsequently stained for 15 min with […] crystal violet (CV) solution. Cells were then washed with tap water, dried in air, and the CV dye was dissolved in 33 % (w/v) acetic acid solution. For the detection of mitochondrial respiration, cells were cultivated in MTT staining solution (0.5 mg mL^−1) for approximately 1 h. The dye was then discarded, and the formed formazan (purple) was dissolved in DMSO. The absorbance was measured with an automated microplate reader at λmax 540 nm, with the reference λmax 670 nm. Untreated cells or cells treated only with BSA (control) were also measured, as reference for BSA‐free and BSA‐containing drug formulations, respectively. For determination of the role of autophagy specific inhibitors, CQ or 3‐MA, were applied at a concentration of 20 μM and 0.5 mM, respectively, and the cells were stained with CV dye. Cell viability is expressed as percentage (%) relative to control (untreated cultures).58 Experiments were run in three independent replicates. […] Non‐linear regression analyses of the obtained results was done using GraphPad Prism software to calculate IC50 values.
mouse microglial cell line BV‐2 was a kind gift from Dr. Irena Lavrnja, Institute for Biological Research
“Siniša Stanković” (University of Belgrade).

For the substance “closo ‐[3‐(η^6‐p‐Cymene)‐1‐(quinolin‐8‐yl‐acetate)‐3,1,2‐RuC2B9H10] [Compound 4]”, the 50% inhibitory concentration (IC50) in the assay on A375 human skin melanoma worked out at 11.9 ± 1.2 µM; in assay [1] it was 16.9 ± 1.1 µM; in the assay on B16 mouse melanoma it was 24.5 ± 2.1 µM; with U251 human glioma it was 45.1 ± 0.8 µM. Also, the “cell motility (wound healing assay, in words)” value in the assay with LN229 cells is “inhibited motility”. In addition, in the assay with MCF‐7 cells, the “cell migration (wound healing assay, in words)” value is given as “inhibited cell migration”.

Take “closo‐ [Compound 3, closo‐ [3‐(η^6‐p‐Cymene)‐1‐(CH2COOH)‐3,1,2‐RuC2B9H10]]”: the half-maximal inhibitory concentration (IC50) in the assay on A375 human skin melanoma is 9.7 ± 1.1 µM; in assay [1] it was 22.9 ± 1.4 µM; in the assay with B16 mouse melanoma it was 21.1 ± 2 µM; with U251 human glioma, greater than 100 µM. The “cell motility (wound healing assay, in words)” value with LN229 cells was “inhibited motility”. Besides, the “cell migration (wound healing assay, in words)” value in the assay on MCF‐7 cells is recorded as “inhibited cell migration”.

A word on the IC50: it is the concentration that gives 50% inhibition.

Source of the values: PMC6973020, “Quinoline‐Conjugated Ruthenacarboranes: Toward Hybrid Drugs with a Dual Mode of Action” (Chemmedchem, 2019).
